Experimental data reported in PubChem BioAssay (NCI).
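Five concentrations, 48 hours, 96-well plates. TGI denotes the concentration required for complete inhibition of growth.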

Columns and labels:
Test in all cases: DTP human tumour cell line panel, 48 h
UACC-62 melanoma = tested on: UACC-62 melanoma
HCC-2998 colon = tested on: HCC-2998 colon
UACC-257 melanoma = tested on: UACC-257 melanoma
OVCAR-3 ovarian = tested on: OVCAR-3 ovarian
SK-MEL-28 melanoma = tested on: SK-MEL-28 melanoma
SNB-75 CNS = tested on: SNB-75 CNS
SK-MEL-2 melanoma = tested on: SK-MEL-2 melanoma
HS 578T breast = tested on: HS 578T breast
HCT-116 colon = tested on: HCT-116 colon
MDA-N = tested on: MDA-N
SF-268 CNS = tested on: SF-268 CNS

Measured: TGI

CCOC(=O)c1ccc(C(=O)/C(C#N)=C2\CCCN2C)[nH]1
> 100 µM: all assays above
